Experimental data as given in ChEMBL document CHEMBL3576796, “A Broad Anti-influenza Hybrid Small Molecule That Potently Disrupts the Interaction of Polymerase Acidic Protein-Basic Protein 1 (PA-PB1) Subunits” (J Med Chem, 2015).
In brackets after ≈: the same amount, converted by molar mass.

Columns and labels:
[1] = Cytotoxicity against human HEK293T cells assessed as decrease in cell viability by MTT assay; assay type: cell-based, HEK-293T
[2] = molecular target: PA/PB1 (Influenza A virus (A/Puerto Rico/8/1934(H1N1)), UniProt P03431+P03433)
[3] = Cytotoxicity against MDCK cells assessed as decrease in cell viability by MTT assay; assay type: cell-based, Canis lupus familiaris; conditions: dog
[4] = tested on: Liver microsome; assay: Metabolic stability in human liver microsomes assessed as cytochrome-mediated metabolism after 30 mins by HPLC-MS/MS analysis; assay type: ADME; conditions: 0.5 h
[5] = tested on: Influenza A virus; assay type: functional, organism-based; conditions: A/Puerto Rico/8/1934(H1N1), MDCK, 48 h
[6] = Permeability of the compound assessed as passive diffusion from donor compartment to acceptor compartment after 18 hrs by PAMPA assay; assay type: physicochemical; conditions: read-out: Peff
[7] = Permeability of the compound assessed as membrane drug retention after 18 hrs by PAMPA assay; assay type: physicochemical; set-up: concentration or dose not given beside the values
[8] = Equilibrium solubility of the compound in phosphate buffer at pH 7.4 after 1 hr; assay type: physicochemical
[9] = Antiviral activity against Influenza A virus A/Solomon Island/3/06 (H1N1) assessed as reduction in plaque formation after 48 hrs by plaque reduction assay; assay type: functional, Influenza A virus (A/Solomon Islands/3/2006(H1N1))
[10] = tested on: Influenza B virus; assay: Antiviral activity against Influenza B virus B/Lee/40 assessed as reduction in plaque formation after 48 hrs by plaque reduction assay; assay type: functional, organism-based; conditions: B/Lee/1940, 48 h
[11] = tested on: Influenza B virus; assay: Antiviral activity against Influenza B virus B/Malaysia/2506/04 assessed as reduction in plaque formation after 48 hrs by plaque reduction assay; assay type: functional; conditions: B/Malaysia/2506/2004, 48 h
[12] = tested on: Influenza B virus; assay: Antiviral activity against Influenza B virus B/Bangladesh/333/07 assessed as reduction in plaque formation after 48 hrs by plaque reduction assay; assay type: functional, organism-based; conditions: B/Bangladesh/333/07, 48 h
[13] = Antiviral activity against Influenza A virus A/Wisconsin/67/05 (H3N2) assessed as reduction in plaque formation after 48 hrs by plaque reduction assay; assay type: functional, Influenza A virus (A/Wisconsin/67/2005(H3N2))
[14] = tested on: Influenza A virus; assay type: functional, organism-based; conditions: A/Puerto Rico/8/1934(H1N1), MDCK, 48 h; remark: listed apart in the source

Row | SMILES | CC50 [1] | IC50 [2] | CC50 [3] | Drug metabolism [4] | EC50 [5] | further results
1 | NC(=O)c1c(NC(=O)c2cnn3c(C(F)F)cc(-c4ccccc4)nc23)sc2c1CCC2 | > 1000 µM | 25.4 µM | – | – | – | –
2 | CC1=CC(c2ccccc2)n2nc(NC(=O)c3ccc4ccccc4c3)nc2N1 (stereo not drawn) | 154 µM | > 200 µM | > 115 µM | metabolite_notdetected | 41 µM | –
3 | CCCOc1ccc(C(=O)Nc2nc3nc(-c4ccccc4)cc(C)n3n2)cc1 | 52 µM | 158 µM | > 247 µM | metabolite_notdetected | > 100 µM | –
4 | CC1=CC(c2ccccc2)n2nc(NC(=O)c3ccccc3F)nc2N1 (stereo not drawn) | > 250 µM | 185 µM | > 250 µM | metabolite_notdetected | > 100 µM | –
5 | COc1ccc(C(=O)Nc2nc3n(n2)C(c2ccccc2)C=C(C)N3)cc1 (stereo not drawn) | > 250 µM | 153 µM | > 240 µM | metabolite_notdetected | > 100 µM | Papp at 18 h [6]: 3.52 ×10⁻⁶ cm/s; Activity [7]: 57%; solubility thermodynamic at 1 h [8]: 13 µg/mL (≈ 36 µM)
6 | N#CC(c1ccc(Cl)cc1)c1c(Cl)cc(-n2ncc(=O)[nH]c2=O)cc1Cl (stereo not drawn) [DICLAZURIL] | – | – | – | – | 31 µM | –
7 | CC1=CC(c2ccccc2)n2nc(NC(=O)c3ccc([N+](=O)[O-])cc3)nc2N1 (stereo not drawn) | > 250 µM | 75 µM | > 250 µM | metabolite_notdetected | > 100 µM | –
8 | CSCC[C@H](N)C(=O)N[C@@H](CC(=O)O)C(=O)N[C@H](C(=O)N[C@@H](CC(N)=O)C(=O)N1CCC[C@H]1C(=O)N[C@H](C(=O)N[C@@H](CC(C)C)C(=O)N[C@@H](CC(C)C)C(=O)N[C@@H](Cc1ccccc1)C(=O)N[C@@H](CC(C)C)C(=O)N[C@@H](CCCCN)C(=O)N[C@H](C(=O)N1CCC[C@H]1C(=O)N[C@@H](C)C(=O)N[C@@H](CCC(N)=O)C(=O)O)C(C)C)[C@@H](C)O)C(C)C | > 100 µM | – | – | – | – | –
9 | O=[N+]([O-])c1ccc(Oc2ccc(-n3cc(CO)nn3)cc2)c2nonc12 | 40 µM | 35 µM | – | – | 1 µM | –
10 | Cc1cc(-c2ccccc2)nc2nc(C(=O)Nc3sc4c(c3C(N)=O)CCCCC4)nn12 | > 250 µM | 28 µM | > 250 µM | metabolite_notdetected | 49 µM | EC50 [9]: 16 µM; EC50 [10]: 5 µM; Activity [7]: 99%; EC50 [11]: 11 µM; EC50 [12]: 12 µM; EC50 [13]: 14 µM; EC50 [14]: 8 µM
11 | CCCCOc1ccc(C(=O)Nc2nc3n(n2)C(c2ccccc2)C=C(C)N3)cc1 (stereo not drawn) | > 250 µM | 37 µM | > 196 µM | metabolite_notdetected | 100 µM | –
12 | NC(=O)c1ncn([C@@H]2O[C@H](CO)[C@@H](O)[C@H]2O)n1 [RIBAVIRIN] | > 250 µM | – | > 250 µM | – | – | –
13 | COc1ccccc1C(=O)Nc1nc2n(n1)C(c1ccccc1)C=C(C)N2 (stereo not drawn) | 240 µM | > 200 µM | > 250 µM | metabolite_notdetected | > 100 µM | –
14 | COC(=O)C1=C(N)N(c2cccc(Cl)c2C)C2=C(C(=O)CCC2)C1c1ccc2c(c1)OCO2 (stereo not drawn) | > 1000 µM | 30.4 µM | – | – | 12.2 µM | –
15 | Cc1cc(-c2ccccc2)nc2nc(C(=O)Nc3ccccc3)nn12 | > 250 µM | 128 µM | > 250 µM | metabolite_notdetected | 40 µM | –
16 | CC1=CC(c2ccccc2)n2nc(NC(=O)c3ccc(F)cc3)nc2N1 (stereo not drawn) | 190 µM | 138 µM | > 250 µM | metabolite_notdetected | > 100 µM | –
17 | CC1=CC(c2ccccc2)n2nc(NC(=O)c3ccc(Cl)cc3)nc2N1 (stereo not drawn) | > 250 µM | 95 µM | > 250 µM | metabolite_notdetected | > 100 µM | –

Row | SMILES | CC50 [1] | IC50 [2] | CC50 [3] | Drug metabolism [4] | EC50 [5] | further results
18 | CC1=CC(c2ccccc2)n2nc(NC(=O)c3cccc(F)c3)nc2N1 (stereo not drawn) | 220 µM | 156 µM | > 250 µM | metabolite_notdetected | > 100 µM | –
19 | CC1=CC(c2ccccc2)n2nc(NC(=O)c3ccc(-c4ccccc4)cc3)nc2N1 (stereo not drawn) | 155 µM | > 200 µM | > 193 µM | metabolite_notdetected | 28 µM | –
20 | CC1=CC(c2ccccc2)n2nc(NC(=O)c3ccc(Oc4ccccc4)cc3)nc2N1 (stereo not drawn) | 73 µM | 156 µM | > 180 µM | metabolite_notdetected | 59 µM | –
21 | CCCCc1ccc(C(=O)Nc2nc3n(n2)C(c2ccccc2)C=C(C)N3)cc1 (stereo not drawn) | > 250 µM | 48 µM | > 250 µM | metabolite_notdetected | 100 µM | –
22 | Nc1ccc(O)c2c1C(=O)c1c(N)ccc(O)c1C2=O | > 250 µM | 20.3 µM | – | – | 14.5 µM | –
23 | CCc1oc2ccccc2c1C(=O)c1cc(Br)c(O)c(Br)c1 [BENZBROMARONE] | – | – | – | – | 39 µM | –
24 | NC(=O)c1c(NC(=O)c2nc3nc(-c4ccccc4)cc(C(F)(F)F)n3n2)sc2c1CCCC2 | > 250 µM | 7.5 µM | – | – | – | –
25 | CC1=CC(c2ccccc2)n2nc(NC(=O)c3ccc(OC(C)C)cc3)nc2N1 (stereo not drawn) | > 250 µM | 75 µM | > 250 µM | metabolite_notdetected | > 100 µM | –
26 | CC1=CC(c2ccccc2)n2nc(NC(=O)c3ccccc3)nc2N1 (stereo not drawn) | > 250 µM | 100 µM | > 250 µM | metabolite_notdetected | 100 µM | –
27 | CCCOc1ccc(C(=O)Nc2nc3nc(C)cc(-c4ccccc4)n3n2)cc1 | 95 µM | > 200 µM | > 72 µM | metabolite_notdetected | > 100 µM | –
28 | CCOc1ccc(C(=O)Nc2nc3n(n2)C(c2ccccc2)C=C(C)N3)cc1 (stereo not drawn) | 237 µM | 139 µM | > 250 µM | metabolite_notdetected | 100 µM | –
29 | Cc1cc(-c2ccccc2)n2nc(NC(=O)c3ccccc3)nc2n1 | > 250 µM | > 200 µM | > 250 µM | metabolite_notdetected | > 100 µM | –
30 | Cc1cc(-c2ccccc2)n2nc(C(=O)Nc3ccccc3)nc2n1 | 110 µM | 160 µM | > 250 µM | metabolite_notdetected | 42 µM | –
31 | COc1ccc(C(=O)Nc2nc3nc(C)cc(-c4ccccc4)n3n2)cc1 | 187 µM | > 200 µM | > 250 µM | metabolite_notdetected | 86 µM | –
32 | CC1=CC(c2ccccc2)n2nc(NC(=O)CCc3ccccc3)nc2N1 (stereo not drawn) | 223 µM | 100 µM | > 250 µM | metabolite_notdetected | > 100 µM | –
33 | COc1ccc(C(=O)Nc2nc3nc(-c4ccccc4)cc(C)n3n2)cc1 | 109 µM | 150 µM | > 250 µM | metabolite_notdetected | > 100 µM | –
34 | COc1cccc(C(=O)Nc2nc3n(n2)C(c2ccccc2)C=C(C)N3)c1 (stereo not drawn) | 230 µM | 175 µM | > 250 µM | metabolite_notdetected | > 100 µM | –
